According to patent US20160279204A1, “PEPTIDES AND PHARMACEUTICAL COMPOSITIONS FOR USE IN THE TREATMENT BY NASAL ADMINISTRATION OF PATIENTS SUFFERING FROM ANXIETY AND SLEEP DISORDERS” (MAX-PLANCK-GESELLSCHAFT ZUR FÖRDERUNG DER WISSENSCHAFT E.V., priority 2011, published 2016):

Experiments:
[1] = tested on: GluR1, GluR2, Glt-1, synapsin; assay: Immunoblotting of prefrontal cortex and hippocampus lysates after intranasal NPS; format: in vivo, mouse; settings: 24 hrs after intranasal NPS
Method: Behavioural tests (open field, dark-light test and elevated plus maze (EPM)) following intranasal NPS application were performed sequentially. Each test lasted for 5 min with an inter-test interval of 5 min, as described previously (Bunck et al., 2009; Krömer et al., 2005). The animals' behaviour during testing was videotaped and relevant parameters were analysed with the tracking software ANY-maze version 4.30 (Stoelting, Wood Dale, Ill., USA). Native NPS (1 μg/μL) or vehicle (Ringer solution) were administered intranasally to the alert mouse as described above (total volume: 14 μL). Mice were tested 30 min and 4 hrs after intranasal administration of first drop. Animals were sacrificed 24 hrs after treatment and prefrontal cortex and bilateral hippocampi were prepared immediately and shock-frozen in methylbutane.
For immunoblotting, proteins were extracted from aforementioned two brain regions (prefrontal cortex and bilateral hippocampi). Quantitative blot analysis was performed using ImageJ software (http://rsbweb.nih.gov/ij/; Rasband, W. S., ImageJ, U.S. National Institutes of Health). Primary antibodies used: Glt-1, Glu-R1, Glu-R2 (all 1:100; all from Santa Cruz Biotechnology, Santa Cruz, Calif., USA), synapsin (1:2000; Synaptic Systems, Goettingen, Germany) and GAPDH (1:2000, Santa Cruz Biotechnology, Santa Cruz, Calif., USA). Secondary antibodies used: donkey anti-goat IgG-HRP (1:10000; Santa Cruz Biotechnology, Santa Cruz, Calif., USA), goat anti-rabbit IgG-HRP (1:7500, Sigma-Aldrich, St. Louis, Mo., USA) and goat anti-mouse IgG-HRP (1:25000, Sigma-Aldrich, St. Louis, Mo., USA).

[2] = tested on: CA3-CA1 synapses of the VH; assay: Field potential recordings, bath application of NPS to VH slices; parameters: species or system mouse; settings: bath application of NPS 1 μM, VH slices from C57BL/6N mice
Method: Brains were dissected and placed in ice-cold carbogenated ACSF. 350 μm horizontal slices containing the VH were prepared using a vibroslicer. Afterwards, the slices were incubated for 30 min at 34° C. and subsequently stored at room temperature. For experiments, slices were placed in a submerged recording chamber and continuously superfused with carbogenated ACSF at a flow rate of 3 mL/min. Square pulse electrical stimuli (50 μs pulse width) were delivered via a bipolar tungsten electrode (insulated to the tip, 50 μm pole diameter) that was positioned within the stratum radiatum of the CA1 region. All recordings were performed at room temperature, low-pass filtered at 1 kHz, and digitised at 5 kHz. Evoked field excitatory postsynaptic potentials (fEPSPs) were recorded using glass micro-electrodes (1 MΩ open-tip resistance), filled with ACSF and also positioned within the CA1 stratum radiatum. Stimulus intensities were adjusted in a manner to produce a fEPSP of ˜50% of that amplitude at which a population spike becomes clearly observable. Paired-pulse facilitation was measured at interstimulus intervals of 25, 50, 100, 200, and 400 ms and the paired-pulse ratio was calculated as fEPSP2 amplitude/fEPSP1 amplitude.

In the case of “neuropeptide S (SFRNGVGSGVKKTSFRRAKQ; Neuropeptide S; UniProt P0C0P7 70-89, looked up) [NPS, peptide agonist of neuropeptide S receptor (NPSR); native NPS, rat, from Bachem]”, the synapsin expression ([1]; Bl6 mice, hippocampus versus prefrontal cortex) is reported as “significantly increased in the hippocampus only”, the “GluR1, GluR2 and Glt-1 expression” value ([1]; Bl6 mice, hippocampus) is reported as “remained unaffected” and the Glt-1 expression level ([1]; Bl6 mice, prefrontal cortex) is reported as “significantly increased”. The GluR1 expression level ([1]; Bl6 mice, prefrontal cortex) was “significantly increased”, the GluR2 expression ([1]; Bl6 mice, prefrontal cortex) was “remained unchanged” and the “protein expression changes in the hippocampus” value ([1]; HAB mice, hippocampus) was “no corresponding changes”. The Glt-1 levels ([1]; HAB mice, prefrontal cortex) was “remained unchanged”, the GluR1 expression ([1]; HAB mice, prefrontal cortex) was “not affected” and the GluR2 expression ([1]; HAB mice, prefrontal cortex) was “significantly increased”. The “long-term potentiation (LTP)” value [2] was “decreases” and the paired-pulse facilitation [2] was “decreases”.
